Results reported in patent US3987177A, “Vincaminic acid esters” (Synthelabo, priority 1974, dated 1976).
Counter-ions that a name gives are not always drawn. Like-named read-outs stand apart in the source and are kept apart here.

How the values were obtained:
[1] = tested on: femoral artery of dogs; settings: in words; no test or source given; cited from earlier work
[2] = tested on: Mice of the CD1 strain; assay: Anoxia test on mice under low (oxygen) pressure conditions; type: in vivo; settings: for Protective activity in the anoxia test under reduced pressure conditions, MAD (mean active dose, increases the survival time by 100%): CD1 mice, intraperitoneally 10 minutes before the test, 190 mm of mercury (5.25% oxygen), expressed as the base; for anti-anoxia activity compared to vincamine: mice, in words
Protocol: Mice of the CD1 strain are kept in an atmosphere depleted in oxygen, by producing a partial vacuum (190 mm of mercury, corresponding to 5.25% of oxygen).
The survival time of the animals is noted. This time is increased by agents capable of assisting tissue oxygenation and in particular cerebal oxygenation. The compounds studied are administered in several doses intraperitoneally 10 minutes before the test. The percentage increases in the survival time relative to the values obtained with comparison animals are calculated. The mean active dose (MAD), the dose which increases the survival time by 100%, is determined graphically.

[3] = Acute toxicity (50% lethal dose) in mice; type: in vivo; settings: mouse, in vivo
[4] = tested on: mice of the strain CD1; assay: Acute toxicity (50% lethal dose) in mice; type: in vivo; settings: for toxicity compared to vincamine, lower by a factor, intraperitoneal: intraperitoneally; for toxicity compared to vincamine, lower by a factor, intraperitoneal / toxicity compared to vincamine, lower by a factor, oral: factor vs vincamine; for toxicity compared to vincamine, lower by a factor, oral: orally
[5] = Water solubility; type: physicochemical; settings: methylsulphonic acid salt
[6] = ip, CD1 mice, intraperitoneal, mortality recorded for 7 days, read-out: Acute toxicity LD50, intraperitoneal
[7] = mice, oral, read-out: Acute toxicity LD50, oral

CC[C@]12CCCN3CCc4c(n(c5ccccc45)[C@@](O)(C(=O)OC)C1)[C@@H]32 [Vincamine, reference compound]
vasodilating activity compared to papaverine (known compounds) [1]: at most equal to that of papaverine
Protective activity in the anoxia test under reduced pressure conditions, MAD (mean active dose, increases the survival time by 100%) [2]: 8 mg/kg
LD50 at 168 h [3, 6]: 215 mg/kg
LD50 at 168 h [3, 7]: 460 mg/kg

CC[C@@]12C=C(C(=O)OC3CC(C)CC(C)(C)C3)n3c4c(c5ccccc53)CCN(CCC1)[C@H]42.Cl (some centres unmarked) [Example 1, 3,3,5-Trimethylcyclohexyl apovincaminate]
Protective activity in the anoxia test under reduced pressure conditions, MAD (mean active dose, increases the survival time by 100%) [2]: 5.5 mg/kg
anti-anoxia activity compared to vincamine [2]: markedly greater than that of vincamine
Acute toxicity LD50, intraperitoneal ([4]; CD1 mice, intraperitoneal, mortality recorded for 7 days): 430 mg/kg
toxicity compared to vincamine, lower by a factor, intraperitoneal ([4]; mice): 2
Acute toxicity LD50, oral ([4]; mice, oral, 10080 min): 2100 mg/kg
toxicity compared to vincamine, lower by a factor, oral ([4]; mice): about 5

CCC12C=C(C(=O)OC3CC(C)CC(C)(C)C3)n3c4c(c5ccccc53)CCN(CCC1)C42 (centres unmarked) [Example 3, methylsulphonic acid salt of 3,3,5-trimethylcyclohexyl apovincaminate]
water solubility (in words) [5]: water-soluble
Protective activity in the anoxia test under reduced pressure conditions, MAD (mean active dose, increases the survival time by 100%) [2]: 5 mg/kg
anti-anoxia activity compared to vincamine [2]: markedly greater than that of vincamine
toxicity compared to vincamine, lower by a factor, intraperitoneal ([4]; mice): 2
toxicity compared to vincamine, lower by a factor, oral ([4]; mice): about 5
LD50 at 168 h [3, 6]: 440 mg/kg
LD50 at 168 h [3, 7]: 2800 mg/kg
